Where a SMILES comes first, the peptide text is derived from it. [ ]: non-standard residue; d: D form. βAla = NCCC(=O)O
How the values were obtained:
hMSCs [1] = assay: Peptide degradation in media on top of cells; assay type: in vitro ADME, human; settings: 24 h, LCMS
[2] = Peptide degradation in cell-free conditioned media; assay type: in vitro ADME, human; settings: initial peptide library, 24 h, LCMS, text to Fig. 2B
hUVECs [3] = assay: Peptide degradation in media on top of cells; assay type: in vitro ADME, human; settings: 24 h, LCMS
[4] = Peptide degradation in cell-free conditioned media; assay type: in vitro ADME, human; settings: initial peptide library, 24 h, LCMS, text to Fig. 2B; remark: listed apart in the source
hMSCs [5] = assay: Cell spreading of hMSCs in peptide-crosslinked PEG hydrogels; assay type: cell-based, human; settings: PEG hydrogels containing hMSCs or hUVECs at 20 million cells/mL, up to Day 7
hMSCs [6] = assay: Peptide degradation in Cells condition with MMP-14 inhibitor, hMSCs; assay type: in vitro ADME, human; settings: 50 μM peptide, MMP-14 inhibitor NSC 405020, 24 h, LCMS; text to Fig. 4
hUVECs [7] = assay: Viability of hUVECs in peptide-crosslinked PEG hydrogels; assay type: cell-based, human
[8] = individually synthesized peptides, 50 μM, text to Fig. 4
[9] = initial peptide library, text to Fig. 2B

Row | degradation in the cells condition, hMSCs (hMSCs [1]; [8]) [%] | degradation in the cells condition, hMSCs (hMSCs [1]; [9]) [%] | degradation in media condition, hMSC [2] | degradation in the cells condition, hUVECs (hUVECs [3]; [8]) [%] | degradation in the cells condition, hUVECs (hUVECs [3]; [9]) [%] | degradation in media condition, hUVEC [4] | degradation in the Cells + Inhibitor condition, hMSCs (hMSCs [6]) [%] | Molecule | cytotoxicity of hydrogels crosslinked by the peptide (hMSCs [5]) | hUVEC cell number after seven days in crosslinked gels, difference (hUVECs [7]; PanMMP compared with the KLVAD peptides, DNA quantification, Fig. 6D) | hUVEC metabolic activity after seven days in crosslinked gels (hUVECs [7]; compared with the KLVAD peptides, alamarBlue, Fig. 6C)
1 | 22 | 30 | less than 3% | 4 | 8 | less than 3% |  | KLVADNYASAE | cytotoxic |  | 
2 | 65 | 61 |  |  | 31 |  | 22 | GPQGIWGQ [PanMMP, reference compound] |  | not significant | higher metabolic activity
3 | 54 |  |  | 16 |  |  |  | CSCC[C@H](NC(=O)[C@H](CC(C)C)NC(=O)[C@H](CC(=O)O)NC(=O)[C@H](C)NC(=O)[C@@H](NC(=O)[C@H](CC(C)C)NC(=O)[C@H](CCCCN)NC(=O)CCNC(C)=O)C(C)C)C(=O)N[C@@H](C)C(=O)N[C@@H](CO)C(=O)N[C@@H](C)C(=O)N[C@@H](CCC(=O)O)C(=O)NCCC(N)=O [KLVAD-LM] (Ac-[βAla]KLVADLMASAE[βAla]-NH2) |  |  | 

Reference: doi:10.1101/2024.05.16.594348v1 (bioRxiv, 2024)
